{"source": "ChEMBL document CHEMBL3046822", "about": "“Synthesis, antiplatelet aggregation activity, and molecular modeling study of novel substituted-piperazine analogues” (2011)", "key": {"Platelet [1]": {"test_system": "Platelet", "test": "Antiaggregating activity in Homo sapiens (human) platelet rich plasma assessed as inhibition of ADP-induced platelet aggregation at 10 uM incubated for 4 min prior to ADP-induction measured for 5.5 min by turbidometric analysis", "type": "functional, cell-free"}, "[2]": {"test": "Antiaggregating activity in Homo sapiens (human) platelet rich plasma assessed as disaggregation of ADP-induced platelet aggregation at 4 uM incubated for 4 min prior to ADP-induction measured for 5.5 min by turbidometric analysis relative to control", "type": "functional"}, "[3]": {"test": "Antiaggregating activity in Homo sapiens (human) platelet rich plasma assessed as ristocetin-induced platelet aggregation at 5 uM incubated for 4 min prior to ristocetin-induction measured for 5.5 min by turbidometric analysis (reference value: 65 to 99%)", "type": "functional"}, "[4]": {"test": "Antiaggregating activity in Homo sapiens (human) platelet rich plasma assessed as disaggregation of ADP-induced platelet aggregation at 5 uM incubated for 4 min prior to ADP-induction measured for 5.5 min by turbidometric analysis relative to control", "type": "functional"}, "[5]": {"test": "Antiaggregating activity in Homo sapiens (human) platelet rich plasma assessed as ristocetin-induced platelet aggregation at 4 uM incubated for 4 min prior to ristocetin-induction measured for 5.5 min by turbidometric analysis (reference value: 65 to 99%)", "type": "functional"}, "[6]": {"test": "Antiaggregating activity in Homo sapiens (human) platelet rich plasma assessed as ristocetin-induced platelet aggregation at 10 uM incubated for 4 min prior to ristocetin-induction measured for 5.5 min by turbidometric analysis (reference value: 65 to 99%)", "type": "functional"}, "Platelet [7]": {"test_system": "Platelet", "test": "Antiaggregating activity in Homo sapiens (human) platelet rich plasma assessed as inhibition of arachidonic acid-induced platelet aggregation at 5 uM incubated for 4 min prior to arachidonic acid-induction measured for 5.5 min by turbidometric analysis", "type": "functional, cell-free"}, "Platelet [8]": {"test_system": "Platelet", "test": "Antiaggregating activity in Homo sapiens (human) platelet rich plasma assessed as inhibition of adrenaline-induced platelet aggregation at 4 uM incubated for 4 min prior to adrenaline-induction measured for 5.5 min by turbidometric analysis", "type": "functional, cell-free"}, "Platelet [9]": {"test_system": "Platelet", "test": "Antiaggregating activity in Homo sapiens (human) platelet rich plasma assessed as inhibition of arachidonic acid-induced platelet aggregation at 4 uM incubated for 4 min prior to arachidonic acid-induction measured for 5.5 min by turbidometric analysis", "type": "functional, cell-free"}, "Platelet [10]": {"test_system": "Platelet", "test": "Antiaggregating activity in Homo sapiens (human) platelet rich plasma assessed as inhibition of adrenaline-induced platelet aggregation at 5 uM incubated for 4 min prior to adrenaline-induction measured for 5.5 min by turbidometric analysis", "type": "functional, cell-free"}, "Platelet [11]": {"test_system": "Platelet", "test": "Antiaggregating activity in Homo sapiens (human) platelet rich plasma assessed as inhibition of collagen-induced platelet aggregation at 5 uM incubated for 4 min prior to collagen-induction measured for 5.5 min by turbidometric analysis", "type": "functional, cell-free"}, "Platelet [12]": {"test_system": "Platelet", "test": "Antiaggregating activity in Homo sapiens (human) platelet rich plasma assessed as inhibition of collagen-induced platelet aggregation at 10 uM incubated for 4 min prior to collagen-induction measured for 5.5 min by turbidometric analysis", "type": "functional, cell-free"}, "Platelet [13]": {"test_system": "Platelet", "test": "Antiaggregating activity in Homo sapiens (human) platelet rich plasma assessed as inhibition of collagen-induced platelet aggregation at 4 uM incubated for 4 min prior to collagen-induction measured for 5.5 min by turbidometric analysis", "type": "functional, cell-free"}, "Platelet [14]": {"test_system": "Platelet", "test": "Antiaggregating activity in Homo sapiens (human) platelet rich plasma assessed as inhibition of adrenaline-induced platelet aggregation at 10 uM incubated for 4 min prior to adrenaline-induction measured for 5.5 min by turbidometric analysis", "type": "functional, cell-free"}, "Platelet [15]": {"test_system": "Platelet", "test": "Antiaggregating activity in Homo sapiens (human) platelet rich plasma assessed as inhibition of arachidonic acid-induced platelet aggregation at 10 uM incubated for 4 min prior to arachidonic acid-induction measured for 5.5 min by turbidometric analysis", "type": "functional, cell-free"}, "Platelet [16]": {"test_system": "Platelet", "test": "Antiaggregating activity in Homo sapiens (human) platelet rich plasma assessed as inhibition of adrenaline-induced platelet aggregation at 0.25 uM incubated for 4 min prior to adrenaline-induction measured for 5.5 min by turbidometric analysis", "type": "functional, cell-free"}, "[17]": {"test": "Antiaggregating activity in Homo sapiens (human) platelet rich plasma assessed as ristocetin-induced platelet aggregation at 1 uM incubated for 4 min prior to ristocetin-induction measured for 5.5 min by turbidometric analysis (reference value: 65 to 99%)", "type": "functional"}, "[18]": {"test": "Antiaggregating activity in Homo sapiens (human) platelet rich plasma assessed as ristocetin-induced platelet aggregation at 0.125 uM incubated for 4 min prior to ristocetin-induction measured for 5.5 min by turbidometric analysis (reference value: 65 to 99%)", "type": "functional"}, "[19]": {"test": "Antiaggregating activity in Homo sapiens (human) platelet rich plasma assessed as disaggregation of ADP-induced platelet aggregation at 0.5 uM incubated for 4 min prior to ADP-induction measured for 5.5 min by turbidometric analysis relative to control", "type": "functional"}, "[20]": {"test": "Antiaggregating activity in Homo sapiens (human) platelet rich plasma assessed as collagen-induced platelet aggregation at 0.25 uM incubated for 4 min prior to collagen-induction measured for 5.5 min by turbidometric analysis (reference value: 50 to 98%)", "type": "functional"}, "Platelet [21]": {"test_system": "Platelet", "test": "Antiaggregating activity in Homo sapiens (human) platelet rich plasma assessed as inhibition of adrenaline-induced platelet aggregation at 0.125 uM incubated for 4 min prior to adrenaline-induction measured for 5.5 min by turbidometric analysis", "type": "functional, cell-free"}, "[22]": {"test": "Antiaggregating activity in Homo sapiens (human) platelet rich plasma assessed as ristocetin-induced platelet aggregation at 0.25 uM incubated for 4 min prior to ristocetin-induction measured for 5.5 min by turbidometric analysis (reference value: 65 to 99%)", "type": "functional"}, "[23]": {"test": "Antiaggregating activity in Homo sapiens (human) platelet rich plasma assessed as ristocetin-induced platelet aggregation at 0.5 uM incubated for 4 min prior to ristocetin-induction measured for 5.5 min by turbidometric analysis (reference value: 65 to 99%)", "type": "functional"}, "Platelet [24]": {"test_system": "Platelet", "test": "Antiaggregating activity in Homo sapiens (human) platelet rich plasma assessed as inhibition of collagen-induced platelet aggregation at 0.5 uM incubated for 4 min prior to collagen-induction measured for 5.5 min by turbidometric analysis", "type": "functional, cell-free"}, "Platelet [25]": {"test_system": "Platelet", "test": "Antiaggregating activity in Homo sapiens (human) platelet rich plasma assessed as inhibition of ADP-induced platelet aggregation at 1 uM incubated for 4 min prior to ADP-induction measured for 5.5 min by turbidometric analysis", "type": "functional, cell-free"}, "[26]": {"test": "Antiaggregating activity in Homo sapiens (human) platelet rich plasma assessed as ADP-induced platelet aggregation at 0.25 uM incubated for 4 min prior to ADP-induction measured for 5.5 min by turbidometric analysis (reference value: 54 to 88%)", "type": "functional"}, "Platelet [27]": {"test_system": "Platelet", "test": "Antiaggregating activity in Homo sapiens (human) platelet rich plasma assessed as inhibition of adrenaline-induced platelet aggregation at 0.5 uM incubated for 4 min prior to adrenaline-induction measured for 5.5 min by turbidometric analysis", "type": "functional, cell-free"}, "[28]": {"test": "Antiaggregating activity in Homo sapiens (human) platelet rich plasma assessed as arachidonic acid-induced platelet aggregation at 0.125 uM incubated for 4 min prior to arachidonic acid-induction measured for 5.5 min by turbidometric analysis (reference value: 55 to 100%)", "type": "functional"}, "[29]": {"test": "Antiaggregating activity in Homo sapiens (human) platelet rich plasma assessed as ADP-induced platelet aggregation at 0.125 uM incubated for 4 min prior to ADP-induction measured for 5.5 min by turbidometric analysis (reference value: 54 to 88%)", "type": "functional"}, "Platelet [30]": {"test_system": "Platelet", "test": "Antiaggregating activity in Homo sapiens (human) platelet rich plasma assessed as inhibition of arachidonic acid-induced platelet aggregation at 1 uM incubated for 4 min prior to arachidonic acid-induction measured for 5.5 min by turbidometric analysis", "type": "functional, cell-free"}, "[31]": {"test": "Antiaggregating activity in Homo sapiens (human) platelet rich plasma assessed as collagen-induced platelet aggregation at 0.125 uM incubated for 4 min prior to collagen-induction measured for 5.5 min by turbidometric analysis (reference value: 50 to 98%)", "type": "functional"}, "Platelet [32]": {"test_system": "Platelet", "test": "Antiaggregating activity in Homo sapiens (human) platelet rich plasma assessed as inhibition of adrenaline-induced platelet aggregation at 1 uM incubated for 4 min prior to adrenaline-induction measured for 5.5 min by turbidometric analysis", "type": "functional, cell-free"}, "Platelet [33]": {"test_system": "Platelet", "test": "Antiaggregating activity in Homo sapiens (human) platelet rich plasma assessed as inhibition of arachidonic acid-induced platelet aggregation at 0.5 uM incubated for 4 min prior to arachidonic acid-induction measured for 5.5 min by turbidometric analysis", "type": "functional"}, "Platelet [34]": {"test_system": "Platelet", "test": "Antiaggregating activity in Homo sapiens (human) platelet rich plasma assessed as inhibition of arachidonic acid-induced platelet aggregation at 0.25 uM incubated for 4 min prior to arachidonic acid-induction measured for 5.5 min by turbidometric analysis", "type": "functional, cell-free"}, "Platelet [35]": {"test_system": "Platelet", "test": "Antiaggregating activity in Homo sapiens (human) platelet rich plasma assessed as inhibition of collagen-induced platelet aggregation at 1 uM incubated for 4 min prior to collagen-induction measured for 5.5 min by turbidometric analysis", "type": "functional, cell-free"}}, "note": "The source made the active and inactive calls. No cut-off for these calls is given here."}
{"compound": "O=C(c1ccc[n+](Cc2ccc(F)cc2)c1)N1CCN(c2ccccc2Cl)CC1.[Cl-]", "values": [{"measurement": "inhibition", "setting": "Platelet [1]", "result": "Active"}, {"measurement": "Activity", "setting": "[2]", "result": 60, "unit": "%"}, {"measurement": "Activity", "setting": "[3]", "result": 87, "unit": "%"}, {"measurement": "Activity", "setting": "[4]", "result": 40, "unit": "%"}, {"measurement": "Activity", "setting": "[5]", "result": 88, "unit": "%"}, {"measurement": "Activity", "setting": "[6]", "result": 24, "unit": "%"}, {"measurement": "inhibition", "setting": "Platelet [7]", "result": "Active"}, {"measurement": "inhibition", "setting": "Platelet [8]", "result": "Active"}, {"measurement": "inhibition", "setting": "Platelet [9]", "result": "Active"}, {"measurement": "inhibition", "setting": "Platelet [10]", "result": "Active"}, {"measurement": "inhibition", "setting": "Platelet [11]", "result": "Active"}, {"measurement": "inhibition", "setting": "Platelet [12]", "result": "Active"}, {"measurement": "inhibition", "setting": "Platelet [13]", "result": "Active"}, {"measurement": "inhibition", "setting": "Platelet [14]", "result": "Active"}, {"measurement": "inhibition", "setting": "Platelet [15]", "result": "Active"}]}
{"compound": "O=C(c1ccc[n+](Cc2ccc(Br)cc2)c1)N1CCN(c2ccccc2Cl)CC1.[Br-]", "values": [{"measurement": "inhibition", "setting": "Platelet [16]", "result": "Active"}, {"measurement": "Activity", "setting": "[17]", "result": 69, "unit": "%"}, {"measurement": "Activity", "setting": "[18]", "result": 84, "unit": "%"}, {"measurement": "Activity", "setting": "[19]", "result": 52, "unit": "%"}, {"measurement": "Activity", "setting": "[20]", "result": 77, "unit": "%"}, {"measurement": "inhibition", "setting": "Platelet [21]", "result": "Active"}, {"measurement": "Activity", "setting": "[22]", "result": 84, "unit": "%"}, {"measurement": "Activity", "setting": "[23]", "result": 78, "unit": "%"}, {"measurement": "inhibition", "setting": "Platelet [24]", "result": "Active"}, {"measurement": "inhibition", "setting": "Platelet [25]", "result": "Active"}, {"measurement": "Activity", "setting": "[26]", "result": 74, "unit": "%"}, {"measurement": "inhibition", "setting": "Platelet [27]", "result": "Active"}, {"measurement": "Activity", "setting": "[28]", "result": 68, "unit": "%"}, {"measurement": "Activity", "setting": "[29]", "result": 84, "unit": "%"}, {"measurement": "inhibition", "setting": "Platelet [30]", "result": "Active"}, {"measurement": "Activity", "setting": "[31]", "result": 67, "unit": "%"}, {"measurement": "inhibition", "setting": "Platelet [32]", "result": "Active"}, {"measurement": "inhibition", "setting": "Platelet [33]", "result": "Active"}, {"measurement": "inhibition", "setting": "Platelet [34]", "result": "Active"}, {"measurement": "inhibition", "setting": "Platelet [35]", "result": "Active"}]}
